Values of other authors, collected in paper PMC3066546, “Development of modified nucleosides that have supremely high anti-HIV activity and low toxicity and prevent the emergence of resistant HIV mutants” (Proceedings of the Japan Academy. Series B, Physical and …, 2011).
Where two headings read alike, the source gives them in different places. One block for each compound: values may come before it.

Assays:
HIV-1LAI = details: MTT assay, MT-4 cells
HIV-1wild = tested on: HIV-1wild; parameters: method as in PMID 18487070; details: Table 7; read-out: Anti-HIV activity (MAGI assay, µg) HIV-1wild
HIV-1MDR = tested on: HIV-1MDR; parameters: method as in PMID 18487070; details: Table 7; read-out: Anti-HIV activity (MAGI assay, µg) HIV-1MDR
HIV-1M184V = tested on: HIV-1M184V; parameters: method as in PMID 18487070; details: Table 7; read-out: Anti-HIV activity (MAGI assay, µg) HIV-1M184V
HXB2 (wild type HIV) = tested on: HXB2 (wild type HIV); parameters: method as in PMID 11087576, PMID 11577734, PMID 15200030; details: MAGI assay
KH65R drug-resistant HIV = tested on: KH65R drug-resistant HIV; parameters: method as in PMID 11087576, PMID 11577734, PMID 15200030; details: MAGI assay
L74V drug-resistant HIV = tested on: L74V drug-resistant HIV; parameters: method as in PMID 11087576, PMID 11577734, PMID 15200030; details: MAGI assay
[1] = tested on: 41/215 drug-resistant HIV; parameters: method as in PMID 11087576, PMID 11577734, PMID 15200030; details: MAGI assay
M184V drug-resistant HIV = tested on: M184V drug-resistant HIV; parameters: method as in PMID 11087576, PMID 11577734, PMID 15200030; details: MAGI assay
M184I drug-resistant HIV = tested on: M184I drug-resistant HIV; parameters: method as in PMID 11087576, PMID 11577734, PMID 15200030; details: MAGI assay
[2] = tested on: 41/69/ 125/SG drug-resistant HIV; parameters: method as in PMID 11087576, PMID 11577734, PMID 15200030; details: MAGI assay
[3] = tested on: MDR (multidrug-resistant HIV); details: MAGI assay
Hela cells = details: Table 4, Hela cells
ICR mice = details: for Mortality (%): six-week-old ICR male mice

EC50 (HIV-1LAI; Table 2): 130 nM
Compound: [N-]=[N+]=N[C@]1(CO)O[C@@H](n2cnc3c(N)ncnc32)C[C@@H]1O [4′-C-azido-2′-deoxyadenosine]
CC50 (MT-4 cells; Table 2): 50 µM

EC50 (HIV-1LAI; Table 2): 4 nM
Compound: [N-]=[N+]=N[C@]1(CO)O[C@@H](n2ccc(N)nc2=O)C[C@@H]1O [4′-C-azido-2′-deoxycytidine]
CC50 (MT-4 cells; Table 2): 0.21 µM

EC50 (HIV-1LAI; Table 2): 2100 nM
Compound: Cc1cn([C@H]2C[C@H](O)[C@](CO)(CN=[N+]=[N-])O2)c(=O)[nH]c1=O [4′-C-azidomethylthymidine]
CC50 (MT-4 cells; Table 2): 333 µM

EC50 (HIV-1LAI; Table 2): 10 nM
Compound: Cc1cn([C@H]2C[C@H](O)[C@](CO)(N=[N+]=[N-])O2)c(=O)[nH]c1=O [4′-C-azidothymidine]
CC50 (MT-4 cells; Table 2): 8 µM

EC50 (HIV-1LAI; Table 2): 1.2 nM
Compound: N#C[C@]1(CO)O[C@@H](n2ccc(N)nc2=O)C[C@@H]1O [4′-C-cyano-2′-deoxycytidine]
CC50 (MT-4 cells; Table 2): 0.17 µM

EC50 (HIV-1LAI; Table 2): 2 nM
Compound: Cc1cn([C@H]2C[C@H](O)[C@@](C#N)(CO)O2)c(=O)[nH]c1=O [4′-C-cyanothymidine]
CC50 (MT-4 cells; Table 2): 1 µM

EC50 (HIV-1LAI; Table 2): > 400000 nM
Compound: CC[C@]1(CO)O[C@@H](n2cc(C)c(=O)[nH]c2=O)C[C@@H]1O [4′-C-ethylthymidine]

EC50 (HIV-1LAI; Table 2): 119000 nM
Compound: C#C[C@]1(CO)O[C@@H](n2cc(C)c(=O)[nH]c2=O)[C@@H](O)[C@@H]1O [4′-C-ethynylarabinofuranosylthymine]
CC50 (MT-4 cells): > 400 µM

EC50 (HIV-1LAI; Table 2): 830 nM
Compound: C#C[C@]1(CO)O[C@@H](n2cc(C)c(=O)[nH]c2=O)C[C@@H]1O [4′-C-ethynylthymidine]
CC50 (MT-4 cells; Table 2): > 400 µM

EC50 (HIV-1LAI; Table 2): 6.8 nM
Compound: Nc1ccn([C@H]2C[C@H](O)[C@](CO)(CF)O2)c(=O)n1 [4′-C-fluoromethyl-2′-deoxycytidine]
CC50 (MT-4 cells; Table 2): 0.12 µM

EC50 (HIV-1LAI; Table 2): 7000 nM
Compound: Cc1cn([C@H]2C[C@H](O)C(CO)(CO)O2)c(=O)[nH]c1=O [4′-C-hydroxymethylthymidine]
CC50 (MT-4 cells; Table 2): > 400 µM

EC50 (HIV-1LAI; Table 2): 8490 nM
Compound: CO[C@]1(CO)O[C@@H](n2cc(C)c(=O)[nH]c2=O)C[C@@H]1O [4′-C-methoxythymidine]
CC50 (MT-4 cells; Table 2): 200 µM

EC50 (HIV-1LAI; Table 2): > 100000 nM
Compound: CCC[C@]1(CO)O[C@@H](n2cc(C)c(=O)[nH]c2=O)C[C@@H]1O [4′-C-propylthymidine]
CC50 (MT-4 cells; Table 2): > 100 µM

EC50 (HIV-1LAI; Table 2): > 400000 nM
Compound: C=C[C@]1(CO)O[C@@H](n2cc(C)c(=O)[nH]c2=O)C[C@@H]1O [4′-C-vinylthymidine]
CC50 (MT-4 cells; Table 2): > 400 µM

Compound: C#C[C@]1(CO)O[C@@H](n2cnc3c(N)nc(Cl)nc32)C[C@@H]1O [4′Ed2ClA, 2′-deoxy-4′-C-ethynyl-2-chloroadenosine]
EC50 (HIV-1wild): 1.9 nM
EC50 (HIV-1MDR): 8.4 nM
EC50 (HIV-1M184V): 10 nM

Compound: C#C[C@@]1(CO)C=C[C@H](n2cnc3c(N)nc(F)nc32)O1 [4′Ed42FA, 2′,3′-didehydrodideoxy-4′-C-ethynyl-2-fluoroadenosine]
EC50 (HIV-1wild): 800 nM
EC50 (HIV-1MDR): 150 nM
EC50 (HIV-1M184V): 1800 nM

Compound: C#C[C@]1(CO)O[C@@H](n2cnc3c(O)ncnc32)C[C@@H]1O [4′EdI, 2′-deoxy-4′-C-ethynylinosine]
EC50 (HIV-1LAI; Table 3): 150 nM
EC50 (HXB2 (wild type HIV)): 810 nM
EC50 (KH65R drug-resistant HIV): 250 nM
EC50 (L74V drug-resistant HIV): 610 nM
EC50 [1]: 1300 nM
EC50 (M184V drug-resistant HIV): 1600 nM
EC50 (M184I drug-resistant HIV): 1500 nM
EC50 [2]: 2200 nM
EC50 [3]: 510 nM
CC50 (MT-4 cells; Table 3): 216 µM
CC50 (Hela cells): > 200 µM
Mortality (%) (ICR mice; intraveneous administration, 1 mg/Kg): 0%
Mortality (%) (ICR mice; intraveneous administration, 3 mg/Kg): 0%
Mortality (%) (ICR mice; intraveneous administration, 10 mg/Kg): 0%
Mortality (%) (ICR mice; intraveneous administration, 100 mg/Kg): 0%
Mortality (%) (ICR mice; oral administration, 1 mg/Kg): 0%
Mortality (%) (ICR mice; oral administration, 3 mg/Kg): 0%
Mortality (%) (ICR mice; oral administration, 10 mg/Kg): 0%
Mortality (%) (ICR mice; oral administration, 100 mg/Kg): 0%
survival of mice (ICR mice; single dosage of 3–100 mg kg−1, both intravenous and oral): All eight mice survived

Compound: C#C[C@@]1(CO)CC[C@H](n2cnc3c(N)nc(F)nc32)O1 [4′Edd2FA, 2′,3′-dideoxy-4′-C-ethynyl-2-fluoroadenosine]
EC50 (HIV-1wild): 940 nM
EC50 (HIV-1MDR): 8700 nM
EC50 (HIV-1M184V): 97000 nM
